# In patent publication US8470861B2, “Mitochondria-targeted antioxidant prodrugs and methods of use” (University of Rochester, priority 2005, dated 2013):
# Tests used:
# [1] = test system: isolated rat cardiomyocytes; experiment: Cytoprotective effects in cardiomyocytes, hypoxia-reoxygenation protocol (Trypan Blue exclusion); format: cell-based; conditions: for cytoprotection: compounds 1 μM, etomoxir 20 μM; for cytoprotective effect in presence of etomoxir: compound 1 μM + etomoxir 20 μM
# Protocol: Upper panel: Alkanoic acids 28a and 28b (1 μM), methimazole (1 μM), and etomoxir (20 μM) were incubated with cardiomyocytes in a hypoxia-reoxygenation protocol. CON, control; HR, hypoxia-reoxygenation; Eto, etomoxir. Statistical analysis (one-way ANOVA, n=3): CON vs. HR, p<0.05; HR vs. HR+28a, p<0.05; CON vs. HR+28a, NS; HR+28a vs. HR+28a+Eto, p<0.05; HR vs. HR+28b, p<0.05; HR+28b vs. HR+28b+Eto, p<0.05; HR vs. Methimazole, NS. Lower panel: Alkanoic acids 25c and 30a (1 μM), 2,6-dimethylphenol (1 μM), and etomoxir (20 μM) were incubated with cardiomyocytes in a hypoxia-reoxygenation protocol. CON, control; HR, hypoxia-reoxygenation; Eto, etoximir. Statistical analysis (one-way ANOVA, n=3): CON vs. HR, p<0.05; HR vs. HR+25c, p<0.05; CON vs. HR+25c, p<0.05; HR+25c vs. HR+25c+Eto, p<0.05; HR vs. HR+30a, p<0.05; HR+30a vs. HR+30a+Eto, p<0.05; HR vs. 2,6-Dimethylphenol, NS.
# Primary ventricular cardiomyocytes were isolated from adult rats and viability was assessed […]. All cells were used within 1 hour of isolation and were 80-85% viable and rod-shaped prior to the experiments. Cell viability was quantified with the Trypan Blue exclusion test. The cells were subjected to a hypoxia-reoxygenation protocol designed to simulate cardiac ischemia-reperfusion injury.
# [2] = test system: isolated rat liver mitochondria (mitochondrial β-oxidation); experiment: Mitochondrial biotransformation of alkanoic-acid-based prodrugs; conditions: for biotransformation / substrate quality for β-oxidation (in words): isolated rat liver mitochondria; for effect of added carnitine on biotransformation: presence vs. absence of added carnitine
# From the text: Mitochondrial Biotransformation of Alkanoic-Acid-Based Prodrugs. Rat liver mitochondria were isolated from livers freshly collected from adult male Sprague-Dawley rats (190-225 g) and were used as soon as possible after isolation (Nadtochiy, et al. (2007) J. Mol. Cell. Cardiol. 42:812; Hoffman et al. (2007) Am. J. Physiol. 292:H101). Livers were removed immediately after CO2 euthanasia of the animal, minced, and homogenized with a glass Dounce homogenizer with loose-fitting pestle in liver mitochondria isolation medium that contained 0.25 M sucrose, 2.0 mM HEPES, 1.0 mM EGTA (pH 7.4) at 4° C. The homogenate was centrifuged once at 1000×g for 3 minutes at 4° C. to remove cellular debris. After removal of visible surface fat, the resulting supernatant was centrifuged at 10,000×g for 10 minutes at 4° C. The supernatant was discarded after removing visible surface fat, and the pellet was suspended in ice-cold liver mitochondria isolation medium and centrifuged again at 10,000×g for 10 minutes at 4° C. The mitochondrial pellet thus obtained was suspended in Ca^2+-depletion buffer (1 mM EGTA, 10 mM NaCl, 5 mM succinate, 195 mM mannitol, 25 mM sucrose, 40 mM HEPES, pH 7.2) at room temperature) and incubated with gentle stirring first at room temperature for 10 minutes and then in an ice bath for 5 minutes. Ca^2+-Depletion buffer serves to chelate calcium, activate mitochondrial respiration, and activate the Na^+/Ca^2+ exchanger. The mitochondrial suspension was then centrifuged at 10,000×g for 10 minutes at 4° C., and the pellet was suspended in liver swelling buffer that contained 195 mM mannitol, 25 mM sucrose, 40 mM HEPES (pH 7.2) at 4° C.; liver swelling buffer allows for ionic/osmotic equilibrium through the remainder of the preparation. The suspension was centrifuged at 10,000×g for 10 minutes at 4° C., followed by the removal of light mitochondria and a final centrifugation at 10,000×g for 10 minutes at 4° C. The mitochondrial pellet was suspended in liver swelling buffer at 4° C. Protein concentrations were determined with the Lowry reagent.^56
# The quality of mitochondrial preparations was determined by estimating the respiration control ratio (RCR, i.e., the ratio of state 3 vs. state 4 respiration rates) with a Clark-type oxygen electrode (Oxygraph, Hansatech Instruments, Norfolk, England). The incubation mixtures contained 120 mM KCl, 25 mM sucrose, 5 mM MgCl2, 5 mM KH2PO4, 1 mM EGTA, 10 mM HEPES, 10 mM succinate, 2.5 mg/mL fat-free bovine serum albumin, 0.5-0.8 mg/mL mitochondrial protein, 5 μM rotenone, and 100 μM ADP (pH 7.4) and were incubated at 37° C.
# Reaction mixtures were prepared in disposable glass culture tubes and contained 20 mM HEPES, 1 mM EGTA, 100 mM KCl, 5 mM KH2PO4, 10 mM MgCl2, 25 mM sucrose, 2 mM L-carnitine (if added), 5 mM ATP, 10 mg/mL bovine serum albumin, 1.4 mM dithiothreitol, 0.13 mM CoA, and 1 mM substrate (pH 7.4). Reaction mixtures were incubated at 37° C. with gentle stirring. Mitochondrial protein (approximately 5 mg/mL) was added, and the samples were incubated for 5 minutes with gentle mixing, which was maintained during the incubation period, to keep the homogenate suspended. After 5 minutes of incubation, the substrates were added. The substrates were dissolved in methanol and added to the reaction mixtures to a final concentration of 1 mM, unless otherwise stated; the final methanol concentration was ≦0.5%. ω-(1-Methyl-1H-imidazol-2-ylthio)alkanoic acids 28a and 28b were dissolved in distilled water and added to the reaction mixtures to a final concentration of 1 mM. Samples were incubated at 37° C. for 30 minutes with constant gentle mixing, and samples were collected for analysis at t=0, 10, 20, and 30 minutes.
# Phenolic metabolite formation, i.e., phenol, 2-methylphenol, 2,6-dimethylphenol, 3,5-dimethylphenol, and 2,6-diisopropylphenol, from ω-(phenoxy)alkanoic acids, was quantified by HPLC analysis.
# [3] = cited from earlier work
# [4] = test system: IMR90 cells; conditions: cited from earlier work
# [5] = 5 mg/kg daily for two weeks in feed, cited from earlier work
structure (smiles),measurement,setting,value
"Cn1ccnc1S [methimazole, 2-Mercapto-1-methylimidazole, reference compound]",cytoprotection,[1],failed to provide cytoprotection
"Cc1cccc(C)c1OCCC(=O)O [Compound 25c, 3-(2,6-Dimethylphenoxy)propanoic acid]",biotransformation / substrate quality for β-oxidation (in words),[2],poor substrates
same,cytoprotective effect in presence of etomoxir,[1],blocked by etomoxir
same,cytoprotection,[1],cytoprotective
"Cc1c(S)ncn1C [1,5-dimethyl-4-mercaptoimidazole]",pKa of the thiol group,[3],2.3
CC(C)(C)NO [N-tert-butylhydroxylamine],concentration that delays senescence (as low as),[4],10 µM
same,radiation sensitivity,[5]; 8 Gy whole-body irradiation,decreased the radiation sensitivity
same,compound-associated toxicity,[5],no compound-associated toxicity was observed
"Cn1ccnc1SCCC(=O)O [Compound 28a, 3-(1-methyl-1H-imidazol-2-ylthio)propanoic acid]",cytoprotective effect in presence of etomoxir,[1],blocked by etomoxir
same,cytoprotection,[1],significant cytoprotection
"CC(C)c1cccc(C(C)C)c1O/C=C/C(=O)O [Compound 30b, (E)-3-(2,6-diisopropylphenoxy)acrylic acid]",biotransformation / substrate quality for β-oxidation (in words),[2],No quantifiable biotransformation
CNO [N-methylhydroxylamine],concentration that delays senescence (as low as),[4],10 µM
"Cc1cccc(C)c1O/C=C\C(=O)O [(Z)-3-(2,6-dimethylphenoxy)acrylic acid]",biotransformation / substrate quality for β-oxidation (in words),[2],no biotransformation
"Cn1ccnc1SCCCCC(=O)O [Compound 28b, 5-(1-Methyl-1H-imidazol-2-ylthio)pentanoic acid]",cytoprotective effect in presence of etomoxir,[1],blocked by etomoxir
same,cytoprotection,[1],significant cytoprotection
"Cc1cccc(C)c1OCSCCC(=O)O [Compound 29, 3-[(2,6-Dimethylphenoxy)methylthio]propanoic acid]",biotransformation / substrate quality for β-oxidation (in words),[2],much better substrate
same,effect of added carnitine on biotransformation,[2],no significant difference
ONCc1ccccc1 [N-benzylhydroxylamine],concentration that delays senescence (as low as),[4],10 µM
"Cc1cccc(C)c1O/C=C/C(=O)O [Compound 30a, (E)-3-(2,6-dimethylphenoxy)acrylic acid]",rate of biotransformation relative to saturated analog 25c,[2]; 30a vs. 25c,approximately 20 fold
same,cytoprotective effect in presence of etomoxir,[1],blocked by etomoxir
same,cytoprotection,[1],cytoprotective
"Cc1cccc(C)c1OCCCCC(=O)O [Compound 26c, 5-(2,6-Dimethylphenoxy)pentanoic acid]",biotransformation / substrate quality for β-oxidation (in words),[2],poor substrates
"CCOC(=O)[C@@]1(CCCCCCOc2ccc(Cl)cc2)CO1 [etomoxir, reference compound]",cytoprotection,[1],no cytoprotective effect
"O=C(O)CCOc1ccccc1 [Compound 25a, 3-(Phenoxy)propanoic acid]",effect of added carnitine on biotransformation,[2],no significant difference
